Measured values from ChEMBL document CHEMBL1201862, “PubChem BioAssay data set” (2004).
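Five compound concentrations were applied to cells in 96-well plates for 48 hours; endpoints were derived by simple linear interpolation of the resulting dose-response curve. At the GI50, growth is halved.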 Active and inactive are the calls of the source. Rule as the data show it: active = GI50 up to about 1.1 µM and inactive = higher. Where a SMILES comes first, the peptide text is derived from it. The star is where a group is joined. Cbz = O=C(OCc1ccccc1)*; Bn = c1ccc(C*)cc1

Columns and labels:
Experiment in all cases: NCI anticancer screen, dose series, 48 h
K562 = system: K562
SR = system: SR
HOP-18 = system: HOP-18
NCI-H460 = system: NCI-H460
ACHN = system: ACHN
NCI-H23 = system: NCI-H23
UACC-257 = system: UACC-257
SN12C = system: SN12C
CAKI-1 = system: CAKI-1
786-0 = system: 786-0
SK-OV-3 = system: SK-OV-3
OVCAR-8 = system: OVCAR-8
MDA-N = system: MDA-N
MDA-MB-231 = system: MDA-MB-231
T47D = system: T47D
Hs-578T = system: Hs-578T
DU-145 = system: DU-145
SNB-19 = system: SNB-19
PC-3 = system: PC-3
BT-549 = system: BT-549

In the case of O=C(/C(=C/c1ccc(O)cc1)c1ccccc1)c1ccccc1, the GI50 (K562) is reported as 17.8 µM (inactive), the GI50 (SR) is reported as 23.8 µM (inactive) and the GI50 (HOP-18) is reported as 18.8 µM (inactive). For the same compound, the GI50 (NCI-H460) was 18.7 µM (inactive), the GI50 (ACHN) was 16.1 µM (inactive) and the GI50 (NCI-H23) was 15 µM (inactive). The GI50 (UACC-257) was 18 µM (inactive), the GI50 (SN12C) was 18.4 µM (inactive) and the GI50 (CAKI-1) was 19.1 µM (inactive). The GI50 (786-0) was 18.5 µM (inactive), the GI50 (SK-OV-3) was 20.8 µM (inactive) and the GI50 (OVCAR-8) was 27 µM (inactive).

COC(=O)C(Cc1ccc(O)cc1)NC(=O)C(COCc1ccccc1)NC(=O)OCc1ccccc1 (stereo not drawn) (Cbz-Ser(Bn)-Tyr-OMe; configuration not given here) was tested, and the GI50 (K562) was > 100 µM (inactive), the GI50 (SR) was > 100 µM (inactive) and the GI50 (MDA-N) was 17.6 µM (inactive). The GI50 (MDA-MB-231) was 18.8 µM (inactive), the GI50 (T47D) was 17.7 µM (inactive) and the GI50 (NCI-H460) was 4.13 µM (inactive). For the same compound, the GI50 (ACHN) was 17.4 µM (inactive), the GI50 (NCI-H23) was 20.1 µM (inactive) and the GI50 (Hs-578T) was 24.6 µM (inactive). For the same compound, the GI50 (UACC-257) was 19.3 µM (inactive), the GI50 (SN12C) was 18.4 µM (inactive) and the GI50 (DU-145) was 17.3 µM (inactive). For the same compound, the GI50 (CAKI-1) was 20.2 µM (inactive), the GI50 (SNB-19) was 16.9 µM (inactive) and the GI50 (SK-OV-3) was 17.4 µM (inactive). For the same compound, the GI50 (OVCAR-8) was 17.8 µM (inactive), the GI50 (PC-3) was 19.1 µM (inactive) and the GI50 (BT-549) was 72.3 µM (inactive).

For Nc1c2c(=O)[nH]c(=O)c2c(N)c2c(=O)c3ccccc3c(=O)c12, the GI50 (K562) was 3.02 µM (inactive), the GI50 (SR) was 2.74 µM (inactive) and the GI50 (MDA-N) was 0.212 µM (active). The GI50 (MDA-MB-231) was 3.02 µM (inactive), the GI50 (T47D) was 3.94 µM (inactive) and the GI50 (NCI-H460) was 0.869 µM (active). For the same compound, the GI50 (ACHN) was 2.24 µM (inactive), the GI50 (NCI-H23) was 0.76 µM (active) and the GI50 (Hs-578T) was 2.62 µM (inactive). For the same compound, the GI50 (UACC-257) was 1.69 µM (inactive), the GI50 (SN12C) was 1.52 µM (inactive) and the GI50 (DU-145) was 1.56 µM (inactive). For the same compound, the GI50 (CAKI-1) was 3.5 µM (inactive), the GI50 (SNB-19) was 3.29 µM (inactive) and the GI50 (786-0) was 2.69 µM (inactive). The GI50 (SK-OV-3) was 7.23 µM (inactive), the GI50 (OVCAR-8) was 1.82 µM (inactive) and the GI50 (PC-3) was 2.49 µM (inactive). The GI50 (BT-549) was 1.99 µM (inactive).

For CCCCN(CC)c1nc(C)nc2c1c(C)c(C)n2-c1c(C)cc(C)cc1C [ANTALARMIN], the GI50 (K562) was 12.5 µM (inactive), the GI50 (SR) was 8.45 µM (inactive) and the GI50 (MDA-N) was 20.1 µM (inactive). The GI50 (MDA-MB-231) was 14.2 µM (inactive), the GI50 (T47D) was 10.7 µM (inactive) and the GI50 (NCI-H460) was 13.2 µM (inactive). For the same compound, the GI50 (ACHN) was 14.9 µM (inactive), the GI50 (NCI-H23) was 14.5 µM (inactive) and the GI50 (Hs-578T) was 16.9 µM (inactive). For the same compound, the GI50 (UACC-257) was 13.3 µM (inactive), the GI50 (SN12C) was 22 µM (inactive) and the GI50 (DU-145) was 16.6 µM (inactive). The GI50 (CAKI-1) was 13.9 µM (inactive), the GI50 (SNB-19) was 16.4 µM (inactive) and the GI50 (786-0) was 16.5 µM (inactive). For the same compound, the GI50 (SK-OV-3) was 17.1 µM (inactive), the GI50 (OVCAR-8) was 14.2 µM (inactive) and the GI50 (PC-3) was 13.5 µM (inactive). For the same compound, the GI50 (BT-549) was 19.7 µM (inactive).
